Results published in patent US5866537A, “Pharmaceutical and/or dietetic compositions with antioxidant activity containing carnosine or derivatives and branched amino acids” (Farmila-Farmaceutici Milano S.R.L., priority 1995, dated 1999).
Counter-ions that a name gives are not always drawn.

Legend:
Assay type in all cases: in vivo
[1] = system: lipoperoxides content in the liver; assay: lipoperoxides content in liver (malonyldialdehyde, Yagi procedure) of rats on hyperlipidemizing and hypercholesterolemizing diet; conditions: male rats, solution as ad libitum drink; for percent variation compared with the control: liver lipoperoxides, 20 days diet; for malonyldialdehyde nmoles/g. of fresh tissue: liver, 20 days hyperlipidemizing and hypercholesterolemizing diet
Protocol: (§1) In order to study the pharmacological and/or dietetic characteristics of the compositions according to the present invention, tests were carried out to evaluate the following effects in rats subjected to an ipovitaminic, hyperlipidemizing and hypercholesterolemizing diet (which is known to be capable of promoting the tissue and plasma peroxidation processes):
2°) effect of the compositions on the lipoperoxides hepatic content (measured as malonyldialdehyde nmoles/g)
(§2) 36 Male rats weighing 180-200 g were used.
(§3) The animals were subjected for 20 days to a standard hyperlipidemizing and hypercolesterolemizing diet consisting of: 20% caseine, a 3.5% mixture of oligoelements and mineral salts, a 0.1% mixture of vitamins, 0.2% choline bitartrate, 2% cellulose powder, 0.5% chloesterol, 0.25. sodium cholate, 62.44% saccharose and 10.9% lard. During that time, the animals were divided into in 6 groups which received as an "ad libitum" available drink:
(§4) 1° group: control (only water)
(§5) 2° group: Test A (a 0.75% CARNOSINE aqueous solution)
(§6) 3° group: Test B (a 0.25% CARNITINE aqueous solution)
(§7) At end of the test the animals were killed to take both blood samples and the various organs (liver, brain, and heart) on which the lipoperoxides content was evaluated dosing malonyldialdehyde, according to the procedure by Yagi (YAGI K, (1982), in "Lipid peroxides in biology and medicine", Academic Press, New York, pp. 324-40).

[2] = system: lipoperoxides content in brain; assay: lipoperoxides content in brain (malonyldialdehyde, Yagi procedure) of rats on hyperlipidemizing and hypercholesterolemizing diet; conditions: male rats, solution as ad libitum drink; for percent variation compared with the control: brain lipoperoxides, 20 days diet; for malonyldialdehyde nmoles/g. of fresh tissue: brain, 20 days hyperlipidemizing and hypercholesterolemizing diet
Protocol: 3°) effect of the compositions on the lipoperoxides cerebral content (measured as malonyldialdehyde nmoles/g)
as §2, §3, §4, §5, §6, §7

[3] = system: lipoperoxides content in the plasma; assay: lipoperoxides content in plasma (malonyldialdehyde, Yagi procedure) of rats on hyperlipidemizing and hypercholesterolemizing diet; conditions: male rats, solution as ad libitum drink; for percent variation compared with the control: plasma lipoperoxides, 20 days diet; for malonyldialdehyde: plasma, 20 days hyperlipidemizing and hypercholesterolemizing diet
Protocol: as §1
1°) effect of the compositions on the lipoperoxides […] content (measured as malonildialdehye nmoles/ml)
as §2, §3, §4, §5, §6, §7

[4] = system: lipoperoxides content in the heart; assay: lipoperoxides content in heart (malonyldialdehyde, Yagi procedure) of rats on hyperlipidemizing and hypercholesterolemizing diet; conditions: male rats, solution as ad libitum drink; for percent variation compared with the control: heart lipoperoxides, 20 days diet; for malonyldialdehyde nmoles/g. of fresh tissue: heart, 20 days hyperlipidemizing and hypercholesterolemizing diet
Protocol: as §1
4°) effect of the compositions on the lipoperoxides content in the heart (measured as malonyldialdehyde nmoles/g).
as §2, §3, §4, §5, §6, §7

Row | Compound | percent variation compared with the control [1] | malonyldialdehyde nmoles/g. of fresh tissue [1] | percent variation compared with the control [2] | malonyldialdehyde nmoles/g. of fresh tissue [2] | percent variation compared with the control [3] | malonyldialdehyde [3] [nmol/mL] | percent variation compared with the control [4] | malonyldialdehyde nmoles/g. of fresh tissue [4] | percent variation compared with the control ([4]; listed as carnosine) [%]
1 | C[N+](C)(C)CC(O)CC(=O)[O-] (centres unmarked) [Test B, 3-carboxy-2-hydroxy-N,N,N-trimethyl-1-propanamine inner salt] | +2.3% | 43 ± 6 nmoles/g. of fresh tissue | +3.9% | 106 ± 5 nmoles/g. of fresh tissue | no effects | 4.2 ± 0.8 | no changes compared with the controls | 45 ± 4 nmoles/g. of fresh tissue | 
2 | NCCC(=O)N[C@@H](Cc1c[nH]cn1)C(=O)O [Test A, β-alanyl-L-histidine] | -9.5% | 39 ± 8 nmoles/g. of fresh tissue | -12.7% | 89 ± 7 nmoles/g. of fresh tissue | -14.2% | 3.6 ± 0.6 | -20.0% | 36 ± 7 nmoles/g. of fresh tissue | -20
